The source of these data is patent US7115624B1, “Method of inhibiting protein tyrosine phosphatase 1B and/or T-cell protein tyrosine phosphatase 4 and/or other PTPases with an Asp residue at position 48” (Novo Nordisk A/S, priority 1999, dated 2006).

Common to all, as to experiment: PTPase inhibition, p-nitrophenyl phosphate substrate, Ki
Holding throughout (type): biochemical

One experiment has as its target T1, PTP1B (Homo sapiens, UniProt P18031).
T1 sequence (P18031 1-321): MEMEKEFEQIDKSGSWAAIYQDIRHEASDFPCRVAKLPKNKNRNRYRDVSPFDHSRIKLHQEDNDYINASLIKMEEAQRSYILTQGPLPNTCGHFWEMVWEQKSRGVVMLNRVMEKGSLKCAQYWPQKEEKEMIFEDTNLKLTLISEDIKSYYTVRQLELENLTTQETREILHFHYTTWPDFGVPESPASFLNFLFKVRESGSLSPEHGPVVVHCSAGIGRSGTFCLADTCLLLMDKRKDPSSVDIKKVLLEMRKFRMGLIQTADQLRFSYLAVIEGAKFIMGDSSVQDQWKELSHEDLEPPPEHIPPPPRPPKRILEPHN
To be noted: pH 7.0; wt (Table 4); read-out: Ki values, PTP1B wt.

The target of a further experiment is PTPβ (Homo sapiens, UniProt P23467). To be noted: pH 7.0 (Table 5); read-out: Ki values, PTPβ.
The target of another experiment is T2, CD45 (Homo sapiens, UniProt P08575).
T2 sequence (P08575 599-1306 limits assumed): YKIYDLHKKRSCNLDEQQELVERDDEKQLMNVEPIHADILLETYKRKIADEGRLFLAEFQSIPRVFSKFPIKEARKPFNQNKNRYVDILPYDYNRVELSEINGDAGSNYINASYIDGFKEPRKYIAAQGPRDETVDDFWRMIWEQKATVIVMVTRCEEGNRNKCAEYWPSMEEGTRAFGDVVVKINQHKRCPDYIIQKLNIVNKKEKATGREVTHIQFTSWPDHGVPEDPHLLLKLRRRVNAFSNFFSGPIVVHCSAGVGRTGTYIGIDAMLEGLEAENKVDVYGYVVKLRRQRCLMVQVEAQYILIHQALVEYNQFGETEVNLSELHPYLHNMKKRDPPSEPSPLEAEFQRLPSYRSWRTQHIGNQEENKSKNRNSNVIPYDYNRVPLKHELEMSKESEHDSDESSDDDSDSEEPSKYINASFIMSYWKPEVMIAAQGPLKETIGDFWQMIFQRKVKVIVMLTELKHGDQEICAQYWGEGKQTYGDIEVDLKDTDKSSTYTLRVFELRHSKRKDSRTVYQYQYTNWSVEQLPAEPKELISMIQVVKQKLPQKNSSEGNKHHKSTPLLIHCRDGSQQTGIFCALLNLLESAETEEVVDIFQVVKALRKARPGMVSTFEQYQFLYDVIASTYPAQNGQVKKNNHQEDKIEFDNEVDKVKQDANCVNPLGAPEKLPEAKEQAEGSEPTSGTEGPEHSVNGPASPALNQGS
To be noted: pH 7.0 (Table 5); read-out: Ki values, CD45.

Another experiment concerns the target T3, PTPε (Homo sapiens, UniProt P23469).
T3 construct: PTPε D1
Particulars: pH 7.0 (Table 5); read-out: Ki values, PTPε.

Another experiment addresses T4, GLEPP1 (Homo sapiens, UniProt Q16827).
T4 sequence (Q16827 938-1195 limits assumed): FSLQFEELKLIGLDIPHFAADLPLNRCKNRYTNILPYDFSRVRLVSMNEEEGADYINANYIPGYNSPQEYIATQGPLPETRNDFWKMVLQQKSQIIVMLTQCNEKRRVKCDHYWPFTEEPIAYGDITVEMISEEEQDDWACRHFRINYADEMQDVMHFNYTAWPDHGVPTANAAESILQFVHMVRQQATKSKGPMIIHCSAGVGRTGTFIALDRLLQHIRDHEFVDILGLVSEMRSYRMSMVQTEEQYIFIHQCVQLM
Particulars: pH 7.0 (Table 5). How it is done:
(§1) Specificity against a broad set of PTPs—It was next analyzed if the side chain of NNC 52–1153 would cause the increased selectivity against other PTPs. NNC 52–1153 was tested against a set of 10 different wt PTP domains (Table 5). It appears from this table that a substantial increase in affinity for PTP1B and TC-PTP has been obtained, while at the same time introducing a very high degree of selectivity against many other PTPs representing a broad spectrum of this class of enzymes (having Asp 48).
(§2) The assay conditions are as follows.

Another experiment deals with T5, TC-PTP (Homo sapiens, UniProt P17706).
T5 sequence (P17706 5-275 limits assumed): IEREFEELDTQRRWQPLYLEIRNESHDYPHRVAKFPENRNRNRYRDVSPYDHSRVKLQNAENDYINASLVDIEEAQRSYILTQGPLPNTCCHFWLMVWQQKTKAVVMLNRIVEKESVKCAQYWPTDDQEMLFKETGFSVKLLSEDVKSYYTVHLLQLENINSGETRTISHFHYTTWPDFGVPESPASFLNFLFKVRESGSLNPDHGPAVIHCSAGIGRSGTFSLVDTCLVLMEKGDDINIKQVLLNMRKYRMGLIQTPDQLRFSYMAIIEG
To be noted: pH 7.0 (Table 5). How it is done: as §1, §2

A further experiment has as its target T6, LAR (Homo sapiens, UniProt P10586).
T6 sequence (P10586 1285-1907 limits assumed): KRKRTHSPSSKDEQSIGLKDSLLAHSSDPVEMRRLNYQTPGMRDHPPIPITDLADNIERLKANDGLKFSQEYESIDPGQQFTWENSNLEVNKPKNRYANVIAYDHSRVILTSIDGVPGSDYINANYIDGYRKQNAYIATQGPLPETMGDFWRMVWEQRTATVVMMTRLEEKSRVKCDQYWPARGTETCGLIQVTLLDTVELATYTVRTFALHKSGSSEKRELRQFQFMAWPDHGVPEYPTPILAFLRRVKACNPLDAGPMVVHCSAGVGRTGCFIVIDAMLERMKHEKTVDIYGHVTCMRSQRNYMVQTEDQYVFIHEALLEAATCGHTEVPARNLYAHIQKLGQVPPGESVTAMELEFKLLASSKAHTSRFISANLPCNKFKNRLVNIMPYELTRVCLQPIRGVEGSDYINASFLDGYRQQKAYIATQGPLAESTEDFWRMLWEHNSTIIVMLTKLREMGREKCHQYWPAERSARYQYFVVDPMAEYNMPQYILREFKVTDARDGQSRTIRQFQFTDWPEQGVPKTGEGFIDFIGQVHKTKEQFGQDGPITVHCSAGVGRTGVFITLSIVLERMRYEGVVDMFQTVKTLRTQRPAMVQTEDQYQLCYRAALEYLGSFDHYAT
To be noted: pH 7.0 (Table 5); read-out: Ki values, LAR.

T3 sequence (P23469 135-394 limits assumed): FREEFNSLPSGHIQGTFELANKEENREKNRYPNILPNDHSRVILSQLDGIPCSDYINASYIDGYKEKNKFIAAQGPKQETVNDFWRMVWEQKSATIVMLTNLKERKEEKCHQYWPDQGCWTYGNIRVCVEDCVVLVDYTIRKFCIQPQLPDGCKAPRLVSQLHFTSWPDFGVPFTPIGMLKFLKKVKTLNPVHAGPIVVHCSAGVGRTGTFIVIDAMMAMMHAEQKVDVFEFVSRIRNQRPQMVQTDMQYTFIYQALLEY
Chain of PTPβ (P23467 1703-1963 limits assumed): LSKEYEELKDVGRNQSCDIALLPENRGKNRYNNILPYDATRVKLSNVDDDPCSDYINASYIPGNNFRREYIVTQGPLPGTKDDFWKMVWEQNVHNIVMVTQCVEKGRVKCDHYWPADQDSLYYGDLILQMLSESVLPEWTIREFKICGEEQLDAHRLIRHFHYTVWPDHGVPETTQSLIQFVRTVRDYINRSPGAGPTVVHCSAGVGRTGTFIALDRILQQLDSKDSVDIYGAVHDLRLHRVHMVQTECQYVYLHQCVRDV
Method for CD45: (§3) The assay conditions are as follows. Appropriate concentrations of the compounds of the invention (e.g., 0.1 to 100 μM) are added to the reaction mixtures containing different concentrations of the substrate, p-nitrophenyl phosphate (range: 0.16 to 10 mM—final assay concentration). The buffer used was 50 mM HEPES pH 7.0, 100 mM sodium chloride, 0.1% (w/v) bovine serum albumin, 5 mM glutathione, and 1 mM EDTA. The reaction was started by addition of the enzyme and carried out in microtiter plates at 25° C. for 60 minutes. The reactions are stopped by addition of NaOH. […] The data are analyzed using nonlinear regression fit to classical Michaelis Menten enzyme kinetic models. Inhibition is expressed as Ki values in μM.
Method for LAR: The compounds are evaluated for biological activity with a truncated form of PTP1B (corresponding to the first 321 amino acids), which was expressed in E. coli and purified to apparent homogeneity using published procedures well-known to those skilled in the art. The enzyme reactions are carried out using standard conditions essentially as described by Burke et al. (Biochemistry 35; 15989–15996 (1996)) incorporated by reference. […] Appropriate concentrations of the compounds of the invention (e.g., 0.1 to 100 μM) are added to the reaction mixtures containing different concentrations of the substrate, p-nitrophenyl phosphate (range: 0.16 to 10 mM—final assay concentration). The buffer used was 50 mM HEPES pH 7.0, 100 mM sodium chloride, 0.1% (w/v) bovine serum albumin, 5 mM glutathione, and 1 mM EDTA. The reaction was started by addition of the enzyme and carried out in microtiter plates at 25° C. for 60 minutes. The reactions are stopped by addition of NaOH. The enzyme activity was determined by measurement of the absorbance at 405 nm with appropriate corrections for absorbance at 405 nm of the compounds and p-nitrophenyl phosphate. The data are analyzed using nonlinear regression fit to classical Michaelis Menten enzyme kinetic models. Inhibition is expressed as Ki values in μM.
Method for PTP1B: as §3
Method for PTPβ: as §3
Method for PTPε: as §3

Turning to `O=C(O)C(=O)Nc1sc2c(c1C(=O)O)CCOC2COC1=NS(=O)(=O)c2ccccc21` (stereo not shown) [Compound N, 7-(1,1-dioxo-1H-benzo[d]isothiazol-3-yloxymethyl)-2-(oxalyl-amino)-4,7-dihyd ro-5H-thieno[2,3-c]pyran-3-carboxylic acid], the Ki (usually the equilibrium dissociation constant of an inhibitor or competing ligand from its target) worked out at 0.4 µM on PTP1B; 15 µM on PTPβ; 500 µM on CD45; 460 µM at PTPε; 150 µM on GLEPP1; 0.6 µM on TC-PTP. In addition, at LAR, the Ki came out at 120 µM.
